Data on eight molecules can be found in paper PMC11844072, “Novel 5,6-dichlorobenzimidazole derivatives as dual BRAFWT and BRAFV600E inhibitors: design, synthesis, anti-cancer activity and molecular dynamics simulations” (BMC Chemistry, 2025).

Holding throughout (assay): NCI 60 single concentration growth inhibition
Type in all cases: cell-based, human

One assay concerns A549/ATCC. As to conditions: Homo sapiens, Non-small cell lung cancer, read-out: GI%. The essentials: (§1)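 For the single-dose testing, a 10 µM concentration was applied for 48 h. Adherent lines were fixed with cold TCA, stained with SRB and read at 515 nm, and the result was reported as percent growth versus untreated cells.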
The test system of a further assay is CAKI-1. As to conditions: Homo sapiens, CAKI-1, Renal cancer, read-out: GI%. In outline: as §1
The subject of a further assay is EKVX. As to conditions: Homo sapiens, Non-small cell lung cancer, read-out: GI%. The essentials:
as §1

The next assay has as its system HCT-116. As to conditions: Homo sapiens, HCT-116, Colon cancer, read-out: GI%. The essentials: as §1
The test system of the next assay is MCF7. As to conditions: Homo sapiens, MCF7, Breast cancer, read-out: GI%. In outline: as §1
The subject of the next assay is MDA-MB-231/ATCC. As to conditions: Homo sapiens, Breast cancer, read-out: GI%. In outline:
as §1

The next assay has as its system MDA-MB-435. As to conditions: Homo sapiens, MDA-MB-435, Melanoma, read-out: GI%. The essentials:
as §1

The test system of the next assay is NCI-H226. As to conditions: Homo sapiens, NCI-H226, Non-small cell lung cancer, read-out: GI%. In outline: as §1
The next assay relates to NCI-H23. As to conditions: Homo sapiens, NCI-H23, Non-small cell lung cancer, read-out: GI%. The essentials: as §1
Another assay concerns OVCAR-5. As to conditions: Homo sapiens, OVCAR-5, Ovarian cancer, read-out: GI%. The essentials: as §1
A further assay has as its system PC-3. As to conditions: Homo sapiens, PC-3, Prostate cancer, read-out: GI%. The essentials: as §1
For the next assay, the system named is RXF 393. As to conditions: Homo sapiens, RXF 393, Renal cancer, read-out: GI%. In outline: as §1
For the next assay, the system named is SF-539. As to conditions: Homo sapiens, SF-539, CNS cancer, read-out: GI%. In outline:
as §1

Another assay relates to SK-MEL-28. As to conditions: Homo sapiens, SK-MEL-28, Melanoma, read-out: GI%. In outline:
as §1

The subject of another assay is T-47D. As to conditions: Homo sapiens, T47D, Breast cancer, read-out: GI%. The essentials:
as §1

The next assay has as its system UACC-62. As to conditions: Homo sapiens, UACC-62, Melanoma, read-out: GI%. In outline:
as §1

For the molecule `COc1ccc(-c2nc3cc(Cl)c(Cl)cc3n2CC(=O)NN=Cc2ccc(OCC(=O)O)cc2)cc1` [Compound 10f, 2-(4-((2-(2-(5,6-Dichloro-2-(4-methoxyphenyl)-1H-benzo[d]imidazol-1-yl)acetyl)hydrazono)methyl)phenoxy)acetic acid], the inhibition at 10 µM is under 5% in the assay with A549/ATCC; 15% in the assay with CAKI-1; 5.96% with EKVX; under 5% in the assay with HCT-116; 18.9% in the assay with MCF7; under 5% in the assay with MDA-MB-231/ATCC. Besides, the inhibition at 10 µM was under 5% in the assay with MDA-MB-435; under 5% in the assay on NCI-H226; under 5% in the assay on NCI-H23; under 5% in the assay on OVCAR-5; 8.65% in the assay with PC-3; under 5% with RXF 393. Besides, the inhibition at 10 µM with SF-539 is 10.8%; in the assay with SK-MEL-28, under 5%; with T-47D it was under 5%; in the assay on UACC-62, under 5%.

As for `COC(=O)COc1cccc(C=NNC(=O)Cn2c(-c3ccc(OC)cc3)nc3cc(Cl)c(Cl)cc32)c1` [Compound 10g, Methyl-2-(3-((2-(2-(5,6-dichloro-2-(4-methoxyphenyl)-1H-benzo[d]imidazol-1-yl)acetyl)hydrazono)methyl)phenoxy)acetate], the inhibition at 10 µM with A549/ATCC was under 5%; with CAKI-1, 10.5%; in the assay on EKVX, 13.2%; in the assay with HCT-116 it was 10.6%; in the assay on MCF7 it was 31.9%; in the assay with MDA-MB-231/ATCC it was 21.6%. In addition, the inhibition at 10 µM with MDA-MB-435 is 11.9%; with NCI-H226, 8%; in the assay on NCI-H23 it was under 5%; with OVCAR-5, under 5%; in the assay on PC-3, 36.9%; with RXF 393, 32.9%. Besides, the inhibition at 10 µM was 26.5% in the assay with SF-539, under 5% in the assay on SK-MEL-28, 55.9% in the assay with T-47D and under 5% with UACC-62.

With `COC(=O)COc1ccc(C=NNC(=O)Cn2c(-c3ccc(OC)cc3)nc3cc(Cl)c(Cl)cc32)cc1` [Compound 10h, Methyl-2-(4-((2-(2-(5,6-dichloro-2-(4-methoxyphenyl)-1H-benzo[d]imidazol-1-yl)acetyl)hydrazono)methyl)phenoxy)acetate], the inhibition at 10 µM in the assay with A549/ATCC was under 5%; in the assay on CAKI-1, 5.89%; in the assay with EKVX, under 5%; with HCT-116, 10.8%; in the assay on MCF7, 67.5%; in the assay with MDA-MB-231/ATCC, 94.5%. The inhibition at 10 µM was 18.3% with MDA-MB-435; under 5% in the assay on NCI-H226; under 5% in the assay on NCI-H23; under 5% in the assay on OVCAR-5; 74.4% with PC-3; 85.7% in the assay on RXF 393. The inhibition at 10 µM was 39.2% with SF-539, 31.7% with SK-MEL-28, 107% in the assay on T-47D and under 5% in the assay with UACC-62.

As to `CCOC(=O)C(C)Oc1ccc(C=NNC(=O)Cn2c(-c3ccc(OC)cc3)nc3cc(Cl)c(Cl)cc32)cc1` (centres unmarked) [Compound 10j, Ethyl-2-(4-((2-(2-(5,6-dichloro-2-(4-methoxyphenyl)-1H-benzo[d]imidazol-1-yl)acetyl) hydrazono)methyl)phenoxy)propanoate], the inhibition at 10 µM in the assay on A549/ATCC is under 5%; with CAKI-1 it was 9.1%; in the assay with EKVX, 21.7%; in the assay on HCT-116, 32.3%; with MCF7, 39%; with MDA-MB-231/ATCC, 17.2%. For the same molecule, the inhibition at 10 µM with MDA-MB-435 was 24.8%; in the assay on NCI-H226, 7.33%; in the assay with NCI-H23, 20.8%; with OVCAR-5, under 5%; in the assay on PC-3, 38.5%; in the assay on RXF 393, 43.7%. Further, the inhibition at 10 µM is under 5% in the assay on SF-539, under 5% in the assay with SK-MEL-28, 72.8% with T-47D and 20.1% in the assay with UACC-62.

As for `COc1ccc(-c2nc3cc(Cl)c(Cl)cc3n2CC(=O)NN=Cc2ccc(OC)c(O)c2)cc1` [Compound 10k, 2-(5,6-Dichloro-2-(4-methoxyphenyl)-1H-benzo[d]imidazol-1-yl)-N'-(3-hydroxy-4-methoxybenzylidene)acetohydrazide], the inhibition at 10 µM is 49.9% with A549/ATCC; 48.2% in the assay on CAKI-1; 56.4% in the assay on EKVX; 22% in the assay with HCT-116; 68% with MCF7; 33.9% in the assay on MDA-MB-231/ATCC. Moreover, the inhibition at 10 µM in the assay with MDA-MB-435 is 46.8%; with NCI-H226 it was 48.1%; with NCI-H23, 21.1%; in the assay with OVCAR-5, under 5%; in the assay with PC-3, 56.6%; in the assay with RXF 393 it was 42.2%. Besides, the inhibition at 10 µM is 29.1% in the assay with SF-539, 17.3% in the assay with SK-MEL-28, 43.4% in the assay on T-47D and 35.4% with UACC-62.

`COc1ccc(-c2nc3cc(Cl)c(Cl)cc3n2CC(=O)NN=Cc2ccc(O)c(OC)c2)cc1` [Compound 10l, 2-(5,6-Dichloro-2-(4-methoxyphenyl)-1H-benzo[d]imidazol-1-yl)-N'-(4-hydroxy-3-methoxybenzylidene)acetohydrazide]: the inhibition at 10 µM came to 35.4% in the assay on A549/ATCC; 55.3% in the assay on CAKI-1; 51.9% in the assay with EKVX; 31.6% in the assay with HCT-116; 65.9% in the assay with MCF7; 17.2% in the assay on MDA-MB-231/ATCC. Further, the inhibition at 10 µM with MDA-MB-435 is 42.2%; in the assay on NCI-H226, 47.5%; with NCI-H23, 15%; with OVCAR-5, under 5%; in the assay with PC-3, 54.2%; with RXF 393, 32.2%. Moreover, the inhibition at 10 µM with SF-539 was determined as 32.4%; with SK-MEL-28 it was 7.48%; in the assay with T-47D it was 51.3%; in the assay on UACC-62, 33.6%.

Turning to `COC(=O)COc1cc(C=NNC(=O)Cn2c(-c3ccc(OC)cc3)nc3cc(Cl)c(Cl)cc32)ccc1OC` [Compound 10o, Methyl-2-(5-((2-(2-(5,6-dichloro-2-(4-methoxyphenyl)-1H-benzo[d]imidazol-1-yl)acetyl)hydrazono)methyl)-2-methoxyphenoxy)acetate], the inhibition at 10 µM in the assay with A549/ATCC stood at 8.33%; in the assay on CAKI-1, 37%; with EKVX, 14%; in the assay with HCT-116, 22.9%; in the assay with MCF7 it was 33.4%; in the assay on MDA-MB-231/ATCC it was 90.1%. In addition, the inhibition at 10 µM with MDA-MB-435 was 45.5%; with NCI-H226, 10.2%; in the assay with NCI-H23, 7.03%; in the assay with OVCAR-5, under 5%; in the assay on PC-3 it was 51.2%; in the assay on RXF 393, 129%. Besides, the inhibition at 10 µM in the assay with SF-539 was 80%; in the assay on SK-MEL-28 it was under 5%; in the assay with T-47D, 106%; in the assay with UACC-62 it was 24.3%.

On to `COC(=O)COc1ccc(C=NNC(=O)Cn2c(-c3ccc(OC)cc3)nc3cc(Cl)c(Cl)cc32)cc1OC` [Compound 10p, Methyl-2-(4-((2-(2-(5,6-dichloro-2-(4-methoxyphenyl)-1H-benzo[d]imidazol-1-yl)acetyl)hydrazono)methyl)-2-methoxyphenoxy)acetate], for which the inhibition at 10 µM with A549/ATCC was under 5%; in the assay with CAKI-1 it was 16.5%; in the assay with EKVX it was 18.9%; with HCT-116, 25.1%; in the assay with MCF7 it was 25.8%; with MDA-MB-231/ATCC, 64.6%. Moreover, the inhibition at 10 µM is 31.9% in the assay with MDA-MB-435; under 5% in the assay with NCI-H226; under 5% with NCI-H23; under 5% with OVCAR-5; 79.8% with PC-3; 186% with RXF 393. For the same molecule, the inhibition at 10 µM in the assay with SF-539 came out at 101%; with SK-MEL-28, 6.03%; with T-47D, 81.1%; with UACC-62, 36.5%.
